Test system: soleus muscle
Assay: Individual free fatty acids by gas chromatography in isolated soleus muscle from normally fed rats
Format: cell-based, rat
Conditions: for Total free fatty acids / free fatty acid C14:0 as percentage of total resting fatty acid / free fatty acid C15:0 as percentage of total resting fatty acid / free fatty acid C16:0 as percentage of total resting fatty acid / free fatty acid C16:1 (n-7) as percentage of total resting fatty acid / free fatty acid C16:1 (n-9) as percentage of total resting fatty acid / free fatty acid C17:0 as percentage of total resting fatty acid / free fatty acid C18:0 as percentage of total resting fatty acid / free fatty acid C18:1 (n-7) as percentage of total resting fatty acid / free fatty acid C18:1 (n-9) as percentage of total resting fatty acid / free fatty acid C18:2 as percentage of total resting fatty acid / free fatty acid C18:3 as percentage of total resting fatty acid / free fatty acid C20:0 as percentage of total resting fatty acid / free fatty acid C20:4 as percentage of total resting fatty acid / free fatty acid C20:5 as percentage of total resting fatty acid / free fatty acid C22:4 as percentage of total resting fatty acid / free fatty acid C22:6 as percentage of total resting fatty acid: 1 hour; for Total free fatty acids / free fatty acid adrenic C22:4 / free fatty acid arachidic C20:0 / free fatty acid arachidonic C20:4 / free fatty acid cervonic C22:6 / free fatty acid linoleic C18:2 / free fatty acid linolenic C18:3 / free fatty acid margaric C17:0 / free fatty acid myristic C14:0 / free fatty acid oleic C18:1 / free fatty acid palmitic C16:0 / free fatty acid palmitoleic (n-7) C16:1 / free fatty acid palmitoleic (n-9) C16:1 / free fatty acid pentadecanoic C15:0 / free fatty acid stearic C18:0 / free fatty acid timnodonic C20:5 / free fatty acid vaccenic C18:1: GC; for Total free fatty acids: hormone concentrations 100 nM for all; for free fatty acid C14:0 as percentage of total resting fatty acid / free fatty acid C15:0 as percentage of total resting fatty acid / free fatty acid C16:0 as percentage of total resting fatty acid / free fatty acid C16:1 (n-7) as percentage of total resting fatty acid / free fatty acid C16:1 (n-9) as percentage of total resting fatty acid / free fatty acid C17:0 as percentage of total resting fatty acid / free fatty acid C18:0 as percentage of total resting fatty acid / free fatty acid C18:1 (n-7) as percentage of total resting fatty acid / free fatty acid C18:1 (n-9) as percentage of total resting fatty acid / free fatty acid C18:2 as percentage of total resting fatty acid / free fatty acid C18:3 as percentage of total resting fatty acid / free fatty acid C20:0 as percentage of total resting fatty acid / free fatty acid C20:4 as percentage of total resting fatty acid / free fatty acid C20:5 as percentage of total resting fatty acid / free fatty acid C22:4 as percentage of total resting fatty acid / free fatty acid C22:6 as percentage of total resting fatty acid / free fatty acid adrenic C22:4 / free fatty acid arachidic C20:0 / free fatty acid arachidonic C20:4 / free fatty acid cervonic C22:6 / free fatty acid linoleic C18:2 / free fatty acid linolenic C18:3 / free fatty acid margaric C17:0 / free fatty acid myristic C14:0 / free fatty acid oleic C18:1 / free fatty acid palmitic C16:0 / free fatty acid palmitoleic (n-7) C16:1 / free fatty acid palmitoleic (n-9) C16:1 / free fatty acid pentadecanoic C15:0 / free fatty acid stearic C18:0 / free fatty acid timnodonic C20:5 / free fatty acid vaccenic C18:1: normally fed rats; for free fatty acid adrenic C22:4 / free fatty acid arachidic C20:0 / free fatty acid arachidonic C20:4 / free fatty acid cervonic C22:6 / free fatty acid linoleic C18:2 / free fatty acid linolenic C18:3 / free fatty acid margaric C17:0 / free fatty acid myristic C14:0 / free fatty acid oleic C18:1 / free fatty acid palmitic C16:0 / free fatty acid palmitoleic (n-7) C16:1 / free fatty acid palmitoleic (n-9) C16:1 / free fatty acid pentadecanoic C15:0 / free fatty acid stearic C18:0 / free fatty acid timnodonic C20:5 / free fatty acid vaccenic C18:1: hormone 1 hour
Method: Animal models. Normallyfed rats. All protocols were approved by the University of Auckland Animal Ethics Committee. Male Wistar rats, (age=50 d) weighing 200-250 g, were housed in a constant 12 h/12 h-light/dark cycle and received standard rat-chow (Diet 86, NRM, Auckland) and water ad libitum. The standard diet contained 5% fat (w/w), which comprised mainly beef tallow. The triglyceride, total and free fatty acid contents of representative samples of this diet were analyzed, and are shown in Table 3. Rats were anaesthetized by intraperitoneal injection of sodium pentobarbital (45 mg/kg body weight) then sacrificed by cervical dislocation.
Soleus muscle tissue isolation and incuhation.Immersion and incubation media was Krebs-Henseleit buffer (KHB) containing 118.5 mM NaCl, 4.75 mM KCl, 1.18 mM MgSO4.7H2O and KH2PO4, 24.8 mM NaHCO3, 2.54 mM CaCl2 and 10 mM d-glucose. The medium was gassed continuously with 95% O2/5% CO2. […] Soleus muscles of both legs were excised keeping the tissue immersed in KHB; muscles were separated into two equal parts and transferred to the incubation flasks. At the completion of incubation the muscles were snap frozen in liquid nitrogen, and then trimmed of connective tissue and all visible fat. The muscle strips were stored at −80° C. until analysis.
Lipid extraction and chromatographic separation of fatty acids. Total lipids were extracted from muscle strips by a modified version of the method of Bligh and Dyer (Gorski et al., 1988, Mol & Cell Biochem 178:113-118; 1. Bligh et al., 1959, Can J Biochem Physiol 37: 911-917). Muscles were homogenised (Soniprep 150) in 0.4 ml of deionised water. Solvent volumes used herein were varied according to the water content of the muscle (ie muscle weight) as described (Bligh & Dyer, supra). 2 vols of methanol containing 0.005% butylated hydroxy toluene (BHT) and 1 vol chloroform were added to the muscle suspension. Homogenates were vortexed at maximum speed for 2 minutes and centrifuged at 2,500 g for 4 minutes. Supernatants were recovered and pellets re-extracted with 2 vol methanol, 1 vol chloroform and 0.8 vol 0.2 N HCl. Residues were vortexed for 2 min then centrifuged at 3,500 g for 3 min. After centrifugation the combined supernatants were diluted with 2v each of milli Q water and chloroform and the phases separated by centrifugation at 3,500 g for 4 minutes. The lower chloroform phase was recovered, neutralised by dropwise addition of 0.2 N methanolic NH4OH and evaporated down in a stream of N2. The samples were stored at −80° C. until required.
Aminopropyl phase (250 mg) was packed into 16 ml teflon columns with teflon frits placed at the top and bottom of the bonded phase. Columns were placed in a Vac Elut apparatus and washed twice with 2 ml portions of hexane (Prasad et al., 1988, J Chromato 428: 221-228; Kaluzny et al., 1985, J Lipid Res 26: 135-140). The dry lipid samples were taken up in two 0.150 ml portions of chloroform and applied to the column under atmospheric pressure. After adsorption the neutral lipids were eluted with 4 ml of chloroform-2-propanol (2:1, v/v) and the free fatty acids eluted with 4 ml of 2% acetic acid in diethyl ether. The solvent containing the free fatty acids was dried under a stream of N2.
Gas-liquid chromatographic analysis. Dry free fatty acid residues were processed for derivatisation of methyl esters by the boron trifluoride-methanol method (Prasad, supra). 1 ml of boron trifluoride in methanol (BF3) was added to each sample, the sample vials were heated at 70° C. for 5 minutes, shaken vigorously, and baked for a further 10 minutes. Once the samples reached room temperature 0.5 ml milli Q water was added, the sample vials shaken, 0.1 ml heptane was added and the sample shaken again. 0.05 ml of the top heptane layer was removed for GLC analysis. […]

NC[C@H](O)c1ccc(O)c(O)c1 [Norepinephrine, norepinephrine]
Total free fatty acids: 0.527 ± 0.03 nmol/g wwt | free fatty acid C14:0 as percentage of total resting fatty acid: 3.1% | free fatty acid C15:0 as percentage of total resting fatty acid: 10.9% | free fatty acid C16:0 as percentage of total resting fatty acid: 2.2% | free fatty acid C16:1 (n-7) as percentage of total resting fatty acid: 14.3% | free fatty acid C16:1 (n-9) as percentage of total resting fatty acid: 6.0% | free fatty acid C17:0 as percentage of total resting fatty acid: 7.2% | free fatty acid C18:0 as percentage of total resting fatty acid: 2.4% | free fatty acid C18:1 (n-7) as percentage of total resting fatty acid: 1.2% | free fatty acid C18:1 (n-9) as percentage of total resting fatty acid: 1.4% | free fatty acid C18:2 as percentage of total resting fatty acid: 0.8% | free fatty acid C18:3 as percentage of total resting fatty acid: 2.5% | free fatty acid C20:0 as percentage of total resting fatty acid: 2.0% | free fatty acid C20:4 as percentage of total resting fatty acid: 0.9% | free fatty acid C20:5 as percentage of total resting fatty acid: 0.4% | free fatty acid C22:4 as percentage of total resting fatty acid: 7.5% | free fatty acid C22:6 as percentage of total resting fatty acid: 2.5% | free fatty acid adrenic C22:4: 0.007 ± 0.001 nmol/g wwt | free fatty acid arachidic C20:0: 0.003 ± 0.001 nmol/g wwt | free fatty acid arachidonic C20:4: 0.015 ± 0.0007 nmol/g wwt | free fatty acid cervonic C22:6: 0.022 ± 0.0015 nmol/g wwt | free fatty acid linoleic C18:2: 0.043 ± 0.003 nmol/g wwt | free fatty acid linolenic C18:3: 0.007 ± 0.0025 nmol/g wwt | free fatty acid margaric C17:0: 0.01 ± 0.0007 nmol/g wwt | free fatty acid myristic C14:0: 0.023 ± 0.001 nmol/g wwt | free fatty acid oleic C18:1: 0.07 ± 0.0056 nmol/g wwt | free fatty acid palmitic C16:0: 0.175 ± 0.011 nmol/g wwt | free fatty acid palmitoleic (n-7) C16:1: 0.015 ± 0.002 nmol/g wwt | free fatty acid palmitoleic (n-9) C16:1: 0.007 ± 0.0007 nmol/g wwt | free fatty acid pentadecanoic C15:0: 0.01 ± 0.0012 nmol/g wwt | free fatty acid stearic C18:0: 0.1 ± 0.006 nmol/g wwt | free fatty acid timnodonic C20:5: 0.002 ± 0.0005 nmol/g wwt | free fatty acid vaccenic C18:1: 0.015 ± 0.0008 nmol/g wwt | free fatty acid arachidonic C20:4 (listed as norepinephrine): 0.015±0.0007 nmol/g wwt | free fatty acid cervonic C22:6 (listed as norepinephrine): 0.022±0.0015 nmol/g wwt | free fatty acid palmitoleic (n-9) C16:1 (listed as norepinephrine): 0.007±0.0007 nmol/g wwt

Rat amylin
Total free fatty acids: 0.636 ± 0.05 nmol/g wwt | free fatty acid C14:0 as percentage of total resting fatty acid: 3.4% | free fatty acid C15:0 as percentage of total resting fatty acid: 15.4% | free fatty acid C16:0 as percentage of total resting fatty acid: 2.6% | free fatty acid C16:1 (n-7) as percentage of total resting fatty acid: 15.8% | free fatty acid C16:1 (n-9) as percentage of total resting fatty acid: 7.2% | free fatty acid C17:0 as percentage of total resting fatty acid: 10.7% | free fatty acid C18:0 as percentage of total resting fatty acid: 2.9% | free fatty acid C18:1 (n-7) as percentage of total resting fatty acid: 1.3% | free fatty acid C18:1 (n-9) as percentage of total resting fatty acid: 1.6% | free fatty acid C18:2 as percentage of total resting fatty acid: 1.1% | free fatty acid C18:3 as percentage of total resting fatty acid: 3.7% | free fatty acid C20:0 as percentage of total resting fatty acid: 4.5% | free fatty acid C20:4 as percentage of total resting fatty acid: 1.0% | free fatty acid C20:5 as percentage of total resting fatty acid: 1.4% | free fatty acid C22:4 as percentage of total resting fatty acid: 9.1% | free fatty acid C22:6 as percentage of total resting fatty acid: 3.3% | free fatty acid adrenic C22:4: 0.008 ± 0.003 nmol/g wwt | free fatty acid arachidic C20:0: 0.008 ± 0.002 nmol/g wwt | free fatty acid arachidonic C20:4: 0.016±0.002 nmol/g wwt | free fatty acid cervonic C22:6: 0.03±0.004 nmol/g wwt | free fatty acid linoleic C18:2: 0.058 ± 0.006 nmol/g wwt | free fatty acid linolenic C18:3: 0.01 ± 0.002 nmol/g wwt | free fatty acid margaric C17:0: 0.013 ± 0.0022 nmol/g wwt | free fatty acid myristic C14:0: 0.026 ± 0.0028 nmol/g wwt | free fatty acid oleic C18:1: 0.076 ± 0.0082 nmol/g wwt | free fatty acid palmitic C16:0: 0.21 ± 0.0188 nmol/g wwt | free fatty acid palmitoleic (n-7) C16:1: 0.015 ± 0.0025 nmol/g wwt | free fatty acid palmitoleic (n-9) C16:1: 0.008±0.0013 nmol/g wwt | free fatty acid pentadecanoic C15:0: 0.013 ± 0.002 nmol/g wwt | free fatty acid stearic C18:0: 0.125 ± 0.0058 nmol/g wwt | free fatty acid timnodonic C20:5: 0.005 ± 0.0007 nmol/g wwt | free fatty acid vaccenic C18:1: 0.015 ± 0.0015 nmol/g wwt | free fatty acid arachidonic C20:4 (listed as Amylin): 0.016 ± 0.002 nmol/g wwt | free fatty acid cervonic C22:6 (listed as Amylin): 0.03 ± 0.004 nmol/g wwt | free fatty acid palmitoleic (n-9) C16:1 (listed as Amylin): 0.008 ± 0.0013 nmol/g wwt

rat CGRP-1
Total free fatty acids: 0.691 ± 0.04 nmol/g wwt | free fatty acid C14:0 as percentage of total resting fatty acid: 3.6% | free fatty acid C15:0 as percentage of total resting fatty acid: 12.9% | free fatty acid C16:0 as percentage of total resting fatty acid: 2.9% | free fatty acid C16:1 (n-7) as percentage of total resting fatty acid: 21.6% | free fatty acid C16:1 (n-9) as percentage of total resting fatty acid: 7.5% | free fatty acid C17:0 as percentage of total resting fatty acid: 10.7% | free fatty acid C18:0 as percentage of total resting fatty acid: 3.6% | free fatty acid C18:1 (n-7) as percentage of total resting fatty acid: 1.4% | free fatty acid C18:1 (n-9) as percentage of total resting fatty acid: 1.8% | free fatty acid C18:2 as percentage of total resting fatty acid: 1.0% | free fatty acid C18:3 as percentage of total resting fatty acid: 2.1% | free fatty acid C20:0 as percentage of total resting fatty acid: 3.6% | free fatty acid C20:4 as percentage of total resting fatty acid: 1.1% | free fatty acid C20:5 as percentage of total resting fatty acid: 1.0% | free fatty acid C22:4 as percentage of total resting fatty acid: 8.1% | free fatty acid C22:6 as percentage of total resting fatty acid: 2.7% | free fatty acid adrenic C22:4: 0.007 ± 0.002 nmol/g wwt | free fatty acid arachidic C20:0: 0.007 ± 0.0008 nmol/g wwt | free fatty acid arachidonic C20:4: 0.018±0.002 nmol/g wwt | free fatty acid cervonic C22:6: 0.022±0.002 nmol/g wwt | free fatty acid linoleic C18:2: 0.057 ± 0.006 nmol/g wwt | free fatty acid linolenic C18:3: 0.005 ± 0.0013 nmol/g wwt | free fatty acid margaric C17:0: 0.015 ± 0.0015 nmol/g wwt | free fatty acid myristic C14:0: 0.028 ± 0.001 nmol/g wwt | free fatty acid oleic C18:1: 0.09 ± 0.0075 nmol/g wwt | free fatty acid palmitic C16:0: 0.23 ± 0.01 nmol/g wwt | free fatty acid palmitoleic (n-7) C16:1: 0.022 ± 0.002 nmol/g wwt | free fatty acid palmitoleic (n-9) C16:1: 0.008±0.0006 nmol/g wwt | free fatty acid pentadecanoic C15:0: 0.01 ± 001 nmol/g wwt | free fatty acid stearic C18:0: 0.15 ± 0.01 nmol/g wwt | free fatty acid timnodonic C20:5: 0.003 ± 0.0005 nmol/g wwt | free fatty acid vaccenic C18:1: 0.017 ± 0.0015 nmol/g wwt

Reference: patent US20040038861A1, “Methods and compositions for normalizing lipid levels in mammalian tissues” (priority 2001, published 2004)
